Laboratory results taken from paper PMC5779083 (Cellular signalling, 2017).
Values joined by “and” are separate entries in the source; they are usually repeats but may differ in a detail not shown here. Equal entries are not always repeated.

Key:
C57BL/6 mice [1] = assay: 5′-GNTI-induced scratching; format: in vivo; details: for number of scratches induced: 30 μg/kg s.c.
rKOR [2] = target: T1, rKOR (Rattus norvegicus, UniProt P34975); details: rKOR expressing HEK293; cited from earlier work
hKOR [3] = target: T2, hKOR (Homo sapiens, UniProt P41145); details: hKOR-expressing HEK293 cells; cited from earlier work
rMOR = rMOR (Rattus norvegicus, UniProt P33535); assay: ERK1/2 phosphorylation; format: cell-based
[4] = tested on: untransfected HEK293 cells; assay: ERK1/2 and p38 phosphorylation in untransfected HEK293 cells; format: cell-based; details: untransfected HEK293, 1 μM, 5 min (pERK) or 30 min (pp38), n=3
rKOR [5] = target: T1, rKOR; assay: Signaling bias, ERK1/2; format: cell-based, rodent; details: ERK1/2 vs p38 phosphorylation, U50,488 as reference
hKOR [6] = target: T2, hKOR; assay: Signaling bias, ERK1/2; format: cell-based; details: ERK1/2 vs p38 phosphorylation, U50,488 as reference
C57BL/6 mice [7] = assay: Warm-water tail-withdrawal assay; format: in vivo; details: for analgesic response (increase in tail withdrawal latency): 30 min post-injection, wild type C57BL/6; for change in tail withdrawal latency after norBNI pretreatment: norBNI 10 mg/kg 3–5 days prior
C57BL/6 mice [8] = assay: Acute cross-tolerance to U50,488 in warm-water tail-withdrawal assay; format: in vivo; details: 1 mg/kg i.p. pretreatment
C57BL/6 mice [9] = assay: Locomotor activity; details: 50 μg/kg, n=3; no impairment vs saline (p=0.73)

T1 sequence (P34975 whole entry): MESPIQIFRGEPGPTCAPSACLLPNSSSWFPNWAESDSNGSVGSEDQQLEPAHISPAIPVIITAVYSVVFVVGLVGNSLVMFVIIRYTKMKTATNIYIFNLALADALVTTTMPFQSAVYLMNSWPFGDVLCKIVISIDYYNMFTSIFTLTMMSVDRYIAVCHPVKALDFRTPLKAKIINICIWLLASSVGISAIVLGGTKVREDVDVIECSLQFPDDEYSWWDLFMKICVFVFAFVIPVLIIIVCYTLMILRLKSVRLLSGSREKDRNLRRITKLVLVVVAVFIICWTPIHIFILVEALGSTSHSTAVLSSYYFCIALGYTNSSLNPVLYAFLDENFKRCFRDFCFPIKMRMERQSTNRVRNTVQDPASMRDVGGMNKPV
T2 sequence (P41145 whole entry): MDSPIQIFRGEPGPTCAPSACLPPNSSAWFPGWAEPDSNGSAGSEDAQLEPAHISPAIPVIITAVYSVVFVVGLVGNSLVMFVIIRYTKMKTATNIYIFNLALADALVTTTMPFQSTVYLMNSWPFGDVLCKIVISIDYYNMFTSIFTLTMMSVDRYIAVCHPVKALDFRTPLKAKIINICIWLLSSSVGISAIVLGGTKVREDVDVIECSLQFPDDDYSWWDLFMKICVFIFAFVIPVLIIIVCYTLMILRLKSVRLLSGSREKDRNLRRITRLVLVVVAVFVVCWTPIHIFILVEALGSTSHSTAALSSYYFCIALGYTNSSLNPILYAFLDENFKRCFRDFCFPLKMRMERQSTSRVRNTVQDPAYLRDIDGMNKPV
rMOR, sequence (P33535 whole entry): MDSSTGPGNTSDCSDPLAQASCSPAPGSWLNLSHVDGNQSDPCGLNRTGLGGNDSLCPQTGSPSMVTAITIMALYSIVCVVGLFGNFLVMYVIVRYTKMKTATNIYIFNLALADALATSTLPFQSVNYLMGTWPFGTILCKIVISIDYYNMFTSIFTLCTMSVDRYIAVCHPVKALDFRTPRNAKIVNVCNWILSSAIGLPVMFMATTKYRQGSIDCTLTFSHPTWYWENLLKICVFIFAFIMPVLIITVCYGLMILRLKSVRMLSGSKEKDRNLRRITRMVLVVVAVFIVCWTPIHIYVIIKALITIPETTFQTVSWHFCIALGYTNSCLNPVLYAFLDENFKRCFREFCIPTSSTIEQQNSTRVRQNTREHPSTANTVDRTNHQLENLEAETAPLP

SMILES: NC(N)=Nc1ccc2[nH]c3c(c2c1)C[C@@]1(O)[C@H]2Cc4ccc(O)c5c4[C@@]1(CCN2CC1CC1)[C@H]3O5 [5′-GNTI]
- number of scratches induced (C57BL/6 mice [1]; KOR−/− mice, n=8): 550 ± 84 times in 30 min
- number of scratches induced (C57BL/6 mice [1]; wild type mice, n=10): 566 ± 60 times in 30 min

SMILES: Oc1ccc2c(c1)[C@@]13CCCC[C@@]1(O)[C@@H](C2)N(CC1CCC1)CC3 [Butorphanol]
- signaling bias (in words) (rKOR [2]): G protein biased
- signaling bias (in words) (hKOR [3]): p38-biased

SMILES: CN(C(=O)/C=C/c1ccoc1)[C@@H]1CC[C@@]2(O)[C@H]3Cc4ccc(O)c5c4[C@@]2(CCN3CC2CC2)[C@H]1O5 [Nalfurafine, (2E)-N-[(5α,6β)-17-(cyclopropylmethyl)-3,14-dihydroxy-4,5-epoxymorphinan-6-yl]-3-(3-furyl)-N methylacrylamide]
- EC50 (rMOR): 7.9 nM
- increase in ERK1/2 or p38 phosphorylation [4]: No significant increase
- Bias factor (rKOR [5]): 7 and 7.2
- ΔΔlog(RA) Mean (SEM) (rKOR [5]): 1.15 (0.74)
- ΔΔlog(RA) Mean (SEM) (hKOR [6]): 3.2 (1.02)
- analgesic response (increase in tail withdrawal latency) (C57BL/6 mice [7]; 50 μg/kg i.p.): 1.5 ± 0.7 s
- change in tail withdrawal latency after norBNI pretreatment (C57BL/6 mice [7]; 50 μg/kg): 0.6 ± 0.1 s
- analgesic response (increase in tail withdrawal latency) (C57BL/6 mice [7]; 150 μg/kg i.p.): 1.7 ± 0.4 s
- change in tail withdrawal latency after norBNI pretreatment (C57BL/6 mice [7]; 150 μg/kg): 0.7 ± 0.2 s
- cross-tolerance: effect of pretreatment on U50,488-induced analgesia (C57BL/6 mice [8]; 3 h before U50,488 15 mg/kg i.p.): significantly decreased U50,488-induced analgesia
- cross-tolerance: effect of pretreatment on U50,488-induced analgesia (C57BL/6 mice [8]; 24 h before U50,488 15 mg/kg i.p.): lack of residual analgesic tolerance
- 5′-GNTI-induced scratching after pretreatment (C57BL/6 mice [1]; 20 μg/kg s.c. 20 min prior to 5′-GNTI, wild type C57BL/6, n=10, not significant): 556 ± 67 scratches in 30 min
- 5′-GNTI-induced scratching after pretreatment (C57BL/6 mice [1]; 50 μg/kg s.c. 20 min prior to 5′-GNTI 30 μg/kg, KOR−/− mice, n=8, not significant): 580 ± 16 times in 30 min
- 5′-GNTI-induced scratching after pretreatment (C57BL/6 mice [1]; 50 μg/kg s.c. 20 min prior to 5′-GNTI 30 μg/kg, MOR−/− mice, n=8): 99 ± 40 times in 30 min
- 5′-GNTI-induced scratching after pretreatment (C57BL/6 mice [1]; 50 μg/kg s.c. 20 min prior to 5′-GNTI 30 μg/kg, wild type, n=9): 241±33 times in 30 min
- general locomotor activity, distance moved over 30 min (C57BL/6 mice [9]): 3531 ± 1215 cm

SMILES: CC(C)=CCN1CCC2(C)c3cc(O)ccc3CC1C2C (stereo not shown) [Pentazocine]
- Bias factor (rKOR [5]): 1.4
- ΔΔlog(RA) Mean (SEM) (rKOR [5]): 0.14 (0.79)
- Bias factor (hKOR [6]): 0.62
- ΔΔlog(RA) Mean (SEM) (hKOR [6]): −0.20 (0.78)
- signaling bias (in words) (rKOR [2]): unbiased
- signaling bias (in words) (hKOR [3]): p38-biased

SMILES: Oc1ccc2c3c1O[C@H]1c4[nH]c5c(c4C[C@@]4(O)[C@@H](C2)N(CC2CC2)CC[C@]314)C[C@@]1(O)[C@H]2Cc3ccc(O)c4c3[C@@]1(CCN2CC1CC1)[C@H]5O4 [norBNI, norbinaltorphimine]
- effect on U50,488-mediated increase in withdrawal latency (C57BL/6 mice [7]; norBNI 10 mg/kg 3–5 days prior to U50,488, p < 0.01): blocked
- effect on nalfurafine-mediated increase in withdrawal latency (C57BL/6 mice [7]; norBNI 10 mg/kg 3–5 days prior to nalfurafine, p < 0.05): blocked
